Key:
[1] = test system: MMP1 expression by activated synovial fibroblasts (RASFs); assay: MMP assay: MMP1 expression by RASFs triggered with TNF-α (MMP1 ELISA); format: cell-based; settings: Fibroblast, 48 h, TNF-α trigger 10 ng/mL, semi-quantitative score, read-out: REDUCTION MMP1/TNFa
Experimental: A 384-well format ELISA for measurement of MMP1 is developed. Various primary antibodies are tested, as well as various ELISA protocols. The following protocol is developed and validated to measure MMP1 levels in SF supernatant in 384 well plates: white Lumitrac 600 384 well plates (Greiner) are coated with 2 μg/mL anti-MMP1 antibody MAB1346 (Chemicon). The antibody is diluted in buffer 40 (1.21 g Tris base (Sigma), 0.58 g NaCl (Calbiochem) and 5 mL 10% NaN3 (Sigma) in 1 L milliQ water and adjusted to pH 8.5). After overnight incubation at 4° C., plates are washed with PBS (80 g NaCl, 2 g KCl (Sigma), 11.5 g Na2HPO4.7H2O and 2 g KH2PO4 in 10 L milliQ; pH 7.4) and blocked with 100 μL/well Casein buffer (2% Casein (VWR International) in PBS). Next day, casein buffer is removed from ELISA plates and replaced by 50 μL/well EC buffer (4 g casein, 2.13 g Na2HPO4 (Sigma), 2 g bovine albumin (Sigma), 0.69 g NaH2PO4.H2O (Sigma), 0.5 g CHAPS (Roche), 23.3 g NaCl, 4 mL 0.5 M EDTA pH 8 (Invitrogen), 5 mL 10% NaN3 in 1 L milliQ and adjusted to pH 7.0). 0.25 mM DTT (Sigma) is added to the thawed sample plates. After removal of the EC buffer, 20 μL of sample is transferred to the ELISA plates. After overnight incubation at 4° C. plates are washed twice with PBS and once with PBST (PBS with 0.05% Tween-20 (Sigma)) and incubated with 35 μL/well biotinylated anti-MMP1 antibody solution (R&D). This secondary antibody is diluted in buffer C (0.82 g NaH2PO4.H2O, 4.82 g Na2HPO4, 46.6 g NaCl, 20 g bovine albumin and 4 mL 0.5M EDTA pH 8 in 2 L milliQ and adjusted to pH 7.0) at a concentration of 5 μg/mL. After 2 h of incubation at RT, plates are washed as described above and incubated with 50 μL/well streptavidin-HRP conjugate (Biosource). Streptavidin-HRP conjugate is diluted in buffer C at a concentration of 0.25 μg/mL. After 45 min, plates are washed as described above and incubated for 5 min with 50 μL/well BM Chem ELISA Substrate (Roche). Readout is performed on the Luminoscan Ascent Luminometer (Labsystems) with an integration time of 200 msec or with an Envision reader (Perkin Elmer).
SFs were acquired at passage 1 from a commercial supplier (Cell applications, Inc.). SFs are cultured in DMEM supplemented with 10% heat-inactivated FBS, 1× penicillin/streptomycin (Invitrogen) at 37° C., 10% CO2 until passage 6. Aliquots of the cells are frozen and cryopreserved in liquid nitrogen. Starting from a cryopreserved aliquot, cells are further expanded by sub-culturing cells at 1/3 ratio every week. Cells between passage 10 and 12 are routinely used in compound testing according to following protocol.
Starting from the compound master stocks (all at 10 mM concentration in 100% DMSO) a 3-fold serial dilution is made in 96-well plates in 100% DMSO. Then, plates are further diluted 45-fold in M199 medium supplemented with 1% heat-inactivated FBS to obtain a intermediate work stock.
At day 1, RASFs are seeded in 96 well plates (flat bottom, tissue culture treated, Greiner) at a density of 3000 cells/well in complete synovial growth medium (Cell Applications). Day 5, the medium is completely removed from the cells, and replaced by 81 μL of M199 medium supplemented with 1% heat-inactivated FBS followed by addition of 10 μL compound out of the intermediate work stock. After an incubation period of 90 minutes, which allows the compounds to equilibrate and enter the cells, cells are stimulated with either TNF-α or ‘complex trigger’. TNF-α trigger is added in a volume of […] to obtain final concentration of 10 ng/mL. For that, TNF-α stock (PeproTech) at 10 μg/mL was diluted to 100 ng/mL TNF-a in M199 medium supplemented with 1% FBS. ‘Complex trigger’ mix is added in a volume of 20 μL to obtain a final concentration of 12.5%. For that, ‘complex trigger’ mix, is diluted to 80% with M199 medium supplemented with 1% FBS. […]

[2] = biological target: T1, TAK1-TAB1 fusion protein (Homo sapiens, UniProt O43318); assay: In vitro TAK1 kinase assay; format: biochemical; settings: casein substrate, [33P]-γ-ATP, 90 minutes at 30° C., semi-quantitative score, read-out: POTENCY TAK1 (MAP3K7)
T1 construct: purchased Upstate 14-600
T1 sequence (O43318 with tags, fused parts or gaps limits assumed): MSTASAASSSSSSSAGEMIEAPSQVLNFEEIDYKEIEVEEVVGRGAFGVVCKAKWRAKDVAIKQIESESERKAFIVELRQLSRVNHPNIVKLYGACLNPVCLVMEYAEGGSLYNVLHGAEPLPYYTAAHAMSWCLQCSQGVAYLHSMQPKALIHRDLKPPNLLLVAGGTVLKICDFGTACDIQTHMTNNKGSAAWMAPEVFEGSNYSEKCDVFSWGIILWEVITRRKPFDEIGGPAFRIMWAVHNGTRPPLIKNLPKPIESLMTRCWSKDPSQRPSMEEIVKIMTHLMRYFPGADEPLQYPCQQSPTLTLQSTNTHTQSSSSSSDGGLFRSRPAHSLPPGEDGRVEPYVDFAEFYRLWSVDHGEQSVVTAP
Experimental: For assessing TAK1 inhibition, active TAK1-TAB1 fusion protein was used from Upstate (Cat. No, 14-600). Kinase reactions are set up in 96-well polypropylene plates in 25 μL containing 0.5 mU TAK1-TAB1 fusion protein, 5mM ATP, 0.01 μCi/μL [^33P]-γ-ATP, 0.1 mg/mL casein substrate in 1× reaction buffer containing 10 mM MOPS pH 7.0, 1 mM EDTA.
Starting from the compound master stocks (all at 10 mM concentration in 100% DMSO) a 3-fold serial dilution is made in 96-well plates in 100% DMSO. Plates are further diluted […] in H2O containing 3.5% DMSO, to obtain an intermediate work stock with compounds at 5× the final assay concentration in 5% DMSO.
5 μL of the intermediate stock is transferred into V-bottom 96 well polypropylene plates and 11 μL of Enzyme mix is added. Enzyme mix is made by combining 5 μL 5× reaction buffer ([…] pH 7.0, 1 mM EDTA), 5 μL casein (Sigma) diluted in H20 to 0.5 mg/mL and 1 μL of TAK1-TAB1 fusion protein that was prediluted to 0.5 mU/μL in 1× enzyme dilution buffer (20 mM MOPS pH 7.0, 0.1 mM EDTA, 0.01% Brij-35, 5% glycerol, 1 mM DTT, 1 mg/ml BSA).
The reactions are started by the addition of 9 μL of mixture containing ATP (20.83 uM) and [^33P]-γ-ATP (0.028 μCi/μL).
The assay is stopped 90 minutes after incubation at 30° C. by the addition of 25 μL phosphoric acid (150 mM). The label incorporated into the casein substrate is separated from labeled unincorporated ATP by filtration onto 96-well filter plates using a harvester device. After 6 washes with 75 mM phosphoric acid, the bottom of the filter plates are sealed, and incorporated label is quantified after addition of 40 μL scintillation fluid using TopCount.

Row | Structure (SMILES) | IC50 [2] [µM] | IC50 [1] [µM]
1 | CC(C)N1CCN(c2ccc(Nc3ccc(-c4ccc5cc[nH]c5c4)n4ncnc34)cc2)CC1 [Example 53, 5-(1H-indol-6-yl)-N-[4-(4-isopropylpiperazin-1-yl)phenyl][1,2,4]triazolo[1,5-a]pyridin-8-amine] | > 10 | > 10
2 | CCC(CC)N1CCN(c2ccc(Nc3ccc(-c4cc[nH]c(=O)c4)n4ncnc34)cc2)CC1 [Example 21, 4-[8-({4-[4-(1-ethylpropyl)piperazin-1-yl]phenyl}amino)[1,2,4]triazolo[1,5-a]pyridin-5-yl]pyridin-2(1H)-one] | < 0.5 | > 10
3 | c1nc2c(Nc3ccc(N4CCOCC4)cc3)ccc(-c3ccc4[nH]ccc4c3)n2n1 [Example 50, 5-(1H-indol-5-yl)-N-(4-morpholin-4-ylphenyl)[1,2,4]triazolo[1,5-a]pyridin-8-amine] | > 10 | 1 to 5
4 | COc1cc(-c2ccc(Nc3ccc(N4CCN(C5CCC5)CC4)cc3)c3ncnn23)ccn1 [Example 31, N-[4-(4-cyclobutylpiperazin-1-yl)phenyl]-5-(2-methoxypyridin-4-yl)[1,2,4]triazolo[1,5-a]pyridin-8-amine] | > 10 | 5 to 10
5 | NC(=O)c1cc(-c2ccc(Nc3ccc(N4CCOCC4)cc3)c3ncnn23)ccc1F [Example 45, 2-fluoro-5-{8-[(4-morpholin-4-ylphenyl)amino][1,2,4]triazolo[1,5-a]pyridin-5-yl}benzamide] | > 10 | > 10
6 | COc1ncc(-c2ccc(Nc3ccc(N4CCN(C(C)C)CC4)cc3)c3ncnn23)c(OC)n1 [Example 56, 5-(2,4-dimethoxypyrimidin-5-yl)-N-[4-(4-isopropylpiperazin-1-yl)phenyl][1,2,4]triazolo[1,5-a]pyridin-8-amine] | > 10 | > 10
7 | CC(C)CCN1CCN(c2ccc(Nc3ccc(-c4cc[nH]c(=O)c4)n4ncnc34)cc2)CC1 [Example 22, 4-[8-({4-[4-(3-methylbutyl)piperazin-1-yl]phenyl}amino)[1,2,4]triazolo[1,5-a]pyridin-5-yl]pyridin-2(1H)-one] | < 0.5 | 1 to 5
8 | COc1cc(-c2ccc(Nc3ccc(N4CCN(C5CCCCC5)CC4)cc3)c3ncnn23)ccn1 [Example 32, N-[4-(4-cyclohexylpiperazin-1-yl)phenyl]-5-(2-methoxypyridin-4-yl)[1,2,4]triazolo[1,5-a]pyridin-8-amine] | > 10 | 5 to 10
9 | C[C@@H]1CN(C)[C@@H](C)CN1c1ccc(Nc2ccc(-c3cc[nH]c(=O)c3)n3ncnc23)cc1 (racemic) [Example 10, rel-4-[8-({4-[(2R,5S)-2,4,5-trimethylpiperazin-1-yl]phenyl}amino)[1,2,4]triazolo[1,5-a]pyridin-5-yl]pyridin-2(1H)-one] | < 0.5 | 0.501 to 1
10 | O=c1cc(-c2ccc(Nc3ccc(N4CCN(C5CC5)CC4)cc3)c3ncnn23)cc[nH]1 [Example 23, 4-(8-{[4-(4-cyclopropylpiperazin-1-yl)phenyl]amino}[1,2,4]triazolo[1,5-a]pyridin-5-yl)pyridin-2(1H)-one] | < 0.5 | 1 to 5

More lines, main results first:

Row | IC50 [2] [µM] | Structure (SMILES) | IC50 [1] [µM]
11 | < 0.5 | CC(C)CCN1CCN(c2ccc(Nc3ccc(-c4ccc(C(N)=O)cc4)n4ncnc34)cc2)CC1 [Example 15, 4-[8-({4-[4-(3-methylbutyl)piperazin-1-yl]phenyl}amino)[1,2,4]triazolo[1,5-a]pyridin-5-yl]benzamide] | 1 to 5
12 | > 10 | CC(C)N1CCN(c2ccc(Nc3ccc(-c4cccc(C(N)=O)c4)n4ncnc34)cc2)CC1 [Example 44, 3-(8-{[4-(4-isopropylpiperazin-1-yl)phenyl]amino}[1,2,4]triazolo[1,5-a]pyridin-5-yl)benzamide] | 1 to 5
13 | > 10 | CCCN1CCN(c2ccc(Nc3ccc(-c4ccnc(OC)c4)n4ncnc34)cc2)CC1 [Example 27, 5-(2-methoxypyridin-4-yl)-N-[4-(4-propylpiperazin-1-yl)phenyl][1,2,4]triazolo[1,5-a]pyridin-8-amine] | 1 to 5
14 | < 0.5 | NC(=O)c1ccc(-c2ccc(Nc3ccc(N4CCN(C5CCC5)CC4)cc3)c3ncnn23)cc1 [Example 16, 4-(8-{[4-(4-cyclobutylpiperazin-1-yl)phenyl]amino}[1,2,4]triazolo[1,5-a]pyridin-5-yl)benzamide] | 5 to 10
15 | < 0.5 | CCN1CCN(c2ccc(Nc3ccc(-c4ccc(C(N)=O)cc4)n4ncnc34)cc2)CC1 [Example 12, 4-(8-{[4-(4-ethylpiperazin-1-yl)phenyl]amino}[1,2,4]triazolo[1,5-a]pyridin-5-yl)benzamide] | < 0.5
16 | > 10 | CCN1CCN(c2ccc(Nc3ccc(-c4ccnc(OC)c4)n4ncnc34)cc2)CC1 [Example 26, N-[4-(4-ethylpiperazin-1-yl)phenyl]-5-(2-methoxypyridin-4-yl)[1,2,4]triazolo[1,5-a]pyridin-8-amine] | 1 to 5

Reference: patent US7977352B2, “Triazolopyridine compounds useful for the treatment of degenerative and inflammatory diseases” (Galapagos NV, priority 2006, dated 2011)
